For this test, the system named is human breast tumors. Description: In vivo studies in nude mice bearing s.c. tumors. The conditions noted are these: intraperitoneal, every 2 days, 10 days of treatment, 25 nmol antagonist, 1 μmol 4OH-Tamoxifen per mouse. From the text:
Female athymic (nude) mice (CD1 nu/nu), 6 to 8 weeks old on arrival, were obtained from Charles River (Sulzfeld, Germany). The mice were housed in sterile cages in a temperature-controlled room with 12-hour light/12-hour dark schedule and were fed autoclaved chow and water ad libitum. All experiments were done according to the German ethical guidelines and the German laws for protection of animals.
Tumors were initiated by subcutaneous injection of 1×10^7 cancer cells into the right flank. After 2 weeks all animals had developed solid tumors of about 200 mm^3 and treatment was initiated. The in vivo experiments were done as follows: 25 nmol of GnRH-II antagonist of Seq. ID. No. 23 without or with 1 μmol of 40H-Tamoxifen per mouse (5 mice per group and control group) were injected intraperitoneally. Treatment was repeated every 2 days. Tumor volumes were measured. The mice were killed after 10 days of treatment. […]
The proliferation and induction of apoptosis were analyzed after treatment without or with a GnRH-II antagonist without or with co-treatment with 4OH-Tamoxifen. Nude mice bearing human breast tumors s.c. were treated without or with a GnRH-II antagonist alone or in combination with 4OH-Tamoxifen and the tumor volumes were measured.

For `CC/C(=C(\c1ccccc1)c1ccc(OCCN(C)C)cc1)c1ccccc1` [Tamoxifen], the tumor volume result is recorded as “increases”.

With “Ac-D-2Nal-D-4 Cpa-D-3 Pal-Ser-His-D-3 Pal-Trp-Leu-Pro-D-Ala-NH2 [GnRH II antagonist]”, the tumor volume entry is “increases”.
